In patent US20220389061A1, “IMMUNOMODULATORS” (priority 2019, published 2022):
Starred links: 1 amine or outer side, 2 acyl side, 3 side chain; linkers in the order of their positions; H or OH if unused. Positions of bridges follow the written chain, without caps; N, C: chain ends. Non-standard residues stand in square brackets, D forms with d. Residues, ends and D or L forms follow the SMILES beside them. Groups on a side chain read outwards from the residue. *: point of attachment. Trp(1-CH2CO2Me) = COC(=O)Cn1cc(C[C@H](N)C(=O)O)c2ccccc21; Trp(1-CH2COOH) = N[C@@H](Cc1cn(CC(=O)O)c2ccccc12)C(=O)O; X66 = O=C([C@H](CCN/C(=N/c1ccccc1)c1ccccc1)N[*:1])[*:2]; X57 = O=C([C@H](CN/C(=N/c1ccccc1)c1ccccc1)N[*:1])[*:2]; X73 = FC(F)(F)c1cc(NC(=S)*)cc(C(F)(F)F)c1; Benzofuran(2-CO) = O=C(c1cc2ccccc2o1)*; Hyp = O=C(O)[C@@H]1C[C@@H](O)CN1; X34 = O=C(c1c2ccccc2cc2ccccc12)*; X56 = COc1cc([N+](=O)[O-])ccc1N*; X44 = FC(F)(F)c1ccc(NC(=S)*)cc1; X80 = S=C(Nc1ccc(-n2cccn2)cc1)*; NMeNle = CCCC[C@H](NC)C(=O)O; NMeA = CN[C@@H](C)C(=O)O; Dab = NCC[C@H](N)C(=O)O; Dap = NC[C@H](N)C(=O)O; CO = O=C([*:1])[*:2]

Biological target: T1, PD-1/PD-L1 (Homo sapiens, UniProt Q9NZQ7)
T1 construct: TVMV protease site linker (C); made in house; host or cells: HEK293T cells
T1 sequence (Q9NZQ7 18-239): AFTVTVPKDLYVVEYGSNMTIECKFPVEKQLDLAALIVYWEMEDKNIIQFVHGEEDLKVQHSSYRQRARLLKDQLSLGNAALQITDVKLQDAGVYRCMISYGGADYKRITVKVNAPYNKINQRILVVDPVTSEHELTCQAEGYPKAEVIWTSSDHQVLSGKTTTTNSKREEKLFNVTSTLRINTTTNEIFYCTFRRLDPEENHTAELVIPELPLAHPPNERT
Assay: PD-1/PD-L1 Homogenous Time-Resolved Fluorescence (HTRF) binding assay
Details: not given
Summary of the method: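 Compounds preincubated 15 min with PD-L1-His (10 nM final), then PD-1-Ig (20 nM final) added for 15 min in dPBS with 0.1% BSA, 0.05% Tween-20. Detection by Eu-cryptate anti-Ig (1 nM) and APC anti-His (20 nM) HTRF.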

Row | Structure (SMILES) | IC50
1 | CCCC[C@H]1C(=O)N(C)[C@@H](CCCC)C(=O)N[C@@H](CC(C)C)C(=O)N[C@H](C(=O)NCC(N)=O)CSCC(=O)N[C@@H](Cc2ccc(O)cc2)C(=O)N(C)[C@@H](C)C(=O)N[C@@H](CC(N)=O)C(=O)N2CCC[C@H]2C(=O)N[C@@H](CNC(=O)Nc2ccc([N+](=O)[O-])cc2OC)C(=O)N[C@@H](CC(C)C)C(=O)N2C[C@H](O)C[C@H]2C(=O)N[C@@H](Cc2c[nH]c3ccccc23)C(=O)N[C@@H](CCNC(=O)Nc2ccc([N+](=O)[O-])cc2OC)C(=O)N[C@@H](Cc2cn(CC(=O)O)c3ccccc23)C(=O)N1C [Example 1076] ({CH2CO}-Y[NMeA]NP[Dap]([CO-X56])L[Hyp]W[Dab]([CO-X56])[Trp(1-CH2COOH)][NMeNle][NMeNle]LCG-NH2; thioether N-14) | 8.1 nM

Same assay, conditions: PD-L1-His 10 nM pre-incubated with inhibitor, PD-1-Ig 20 nM; read-out: HTRF IC50

Row | Structure (SMILES) | IC50
2 | CCCC[C@H]1C(=O)N(C)[C@@H](CCCC)C(=O)N[C@@H](CC(C)C)C(=O)N[C@H](C(=O)NCC(N)=O)CSCC(=O)N[C@@H](Cc2ccc(O)cc2)C(=O)N(C)[C@@H](C)C(=O)N[C@@H](CC(N)=O)C(=O)N2CCC[C@H]2C(=O)N[C@@H](CNC(=O)c2cc3ccccc3o2)C(=O)N[C@@H](CC(C)C)C(=O)N2C[C@H](O)C[C@H]2C(=O)N[C@@H](Cc2c[nH]c3ccccc23)C(=O)N[C@@H](CCNC(=O)c2cc3ccccc3o2)C(=O)N[C@@H](Cc2cn(CC(=O)OC)c3ccccc23)C(=O)N1C [Example 3012] ({CH2CO}-Y[NMeA]NP[Dap](Benzofuran(2-CO))L[Hyp]W[Dab](Benzofuran(2-CO))[Trp(1-CH2CO2Me)][NMeNle][NMeNle]LCG-NH2; thioether N-14) | 5.3 nM
3 | CCCC[C@H]1C(=O)N(C)[C@@H](CCCC)C(=O)N[C@@H](CC(C)C)C(=O)N[C@H](C(=O)NCC(N)=O)CSCC(=O)N[C@@H](Cc2ccc(O)cc2)C(=O)N(C)[C@@H](C)C(=O)N[C@@H](CC(N)=O)C(=O)N2CCC[C@H]2C(=O)N[C@@H](CN/C(=N/c2ccccc2)c2ccccc2)C(=O)N[C@@H](CC(C)C)C(=O)N2C[C@H](O)C[C@H]2C(=O)N[C@@H](Cc2c[nH]c3ccccc23)C(=O)N[C@@H](CCN/C(=N/c2ccccc2)c2ccccc2)C(=O)N[C@@H](Cc2cn(CC(=O)O)c3ccccc23)C(=O)N1C [Example 1017] ({CH2CO}-Y[NMeA]NP[X57]L[Hyp]W[X66][Trp(1-CH2COOH)][NMeNle][NMeNle]LCG-NH2; thioether N-14) | 7.5 nM
4 | CCCC[C@H]1C(=O)N(C)[C@@H](CCCC)C(=O)N[C@@H](CC(C)C)C(=O)N[C@H](C(=O)NCC(N)=O)CSCC(=O)N[C@@H](Cc2ccc(O)cc2)C(=O)N(C)[C@@H](C)C(=O)N[C@@H](CC(N)=O)C(=O)N2CCC[C@H]2C(=O)N[C@@H](CNC(=O)c2c3ccccc3cc3ccccc23)C(=O)N[C@@H](CC(C)C)C(=O)N2C[C@H](O)C[C@H]2C(=O)N[C@@H](Cc2c[nH]c3ccccc23)C(=O)N[C@@H](CCNC(=O)c2c3ccccc3cc3ccccc23)C(=O)N[C@@H](Cc2cn(CC(=O)O)c3ccccc23)C(=O)N1C [Example 2011] ({CH2CO}-Y[NMeA]NP[Dap](X34)L[Hyp]W[Dab](X34)[Trp(1-CH2COOH)][NMeNle][NMeNle]LCG-NH2; thioether N-14) | 4.7 nM
5 | CCCC[C@H]1C(=O)N(C)[C@@H](CCCC)C(=O)N[C@@H](CC(C)C)C(=O)N[C@H](C(=O)NCC(N)=O)CSCC(=O)N[C@@H](Cc2ccc(O)cc2)C(=O)N(C)[C@@H](C)C(=O)N[C@@H](CC(N)=O)C(=O)N2CCC[C@H]2C(=O)N[C@@H](CNC(=S)Nc2ccc(-n3cccn3)cc2)C(=O)N[C@@H](CC(C)C)C(=O)N2C[C@H](O)C[C@H]2C(=O)N[C@@H](Cc2c[nH]c3ccccc23)C(=O)N[C@@H](CCNC(=S)Nc2ccc(-n3cccn3)cc2)C(=O)N[C@@H](Cc2cn(CC(=O)O)c3ccccc23)C(=O)N1C [Example 1094] ({CH2CO}-Y[NMeA]NP[Dap](X80)L[Hyp]W[Dab](X80)[Trp(1-CH2COOH)][NMeNle][NMeNle]LCG-NH2; thioether N-14) | 2.4 nM
6 | CCCC[C@H]1C(=O)N(C)[C@@H](CCCC)C(=O)N[C@@H](CC(C)C)C(=O)N[C@H](C(=O)NCC(N)=O)CSCC(=O)N[C@@H](Cc2ccc(O)cc2)C(=O)N(C)[C@@H](C)C(=O)N[C@@H](CC(N)=O)C(=O)N2CCC[C@H]2C(=O)N[C@@H](CNC(=S)Nc2cc(C(F)(F)F)cc(C(F)(F)F)c2)C(=O)N[C@@H](CC(C)C)C(=O)N2C[C@H](O)C[C@H]2C(=O)N[C@@H](Cc2c[nH]c3ccccc23)C(=O)N[C@@H](CCN)C(=O)N[C@@H](Cc2cn(CC(=O)O)c3ccccc23)C(=O)N1C [Example 1136] ({CH2CO}-Y[NMeA]NP[Dap](X73)L[Hyp]W[Dab][Trp(1-CH2COOH)][NMeNle][NMeNle]LCG-NH2; thioether N-14) | 14 nM
7 | CCCC[C@H]1C(=O)N(C)[C@@H](CCCC)C(=O)N[C@@H](CC(C)C)C(=O)N[C@H](C(=O)NCC(N)=O)CSCC(=O)N[C@@H](Cc2ccc(O)cc2)C(=O)N(C)[C@@H](C)C(=O)N[C@@H](CC(N)=O)C(=O)N2CCC[C@H]2C(=O)N[C@@H](CNC(=S)Nc2ccc(C(F)(F)F)cc2)C(=O)N[C@@H](CC(C)C)C(=O)N2C[C@H](O)C[C@H]2C(=O)N[C@@H](Cc2c[nH]c3ccccc23)C(=O)N[C@@H](CCNC(=S)Nc2ccc(C(F)(F)F)cc2)C(=O)N[C@@H](Cc2cn(CC(=O)O)c3ccccc23)C(=O)N1C [Example 1035] ({CH2CO}-Y[NMeA]NP[Dap](X44)L[Hyp]W[Dab](X44)[Trp(1-CH2COOH)][NMeNle][NMeNle]LCG-NH2; thioether N-14) | 2.1 nM
